Here are results for 19 compounds from US20160052926A1, “NOVEL PYRIMIDINE AND PYRIDINE COMPOUNDS AND USAGE THEREOF” (HUTCHISON MEDIPHARMA LIMITED, priority 2013, published 2016).

The subject of one test is RT-112. Briefly: Cellular Proliferation Assay (Cell Counting Kit-8), RT-112. The format is cell-based. To be noted: Homo sapiens, RT-112 cells, 72 hours. Summed up:
(§1)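 Proliferation was read as OD at 450 nm after 1 h with CCK-8, following 72 h drug exposure at 37 °C, 5% CO2. Inhibition was calculated against cells in 0.5% DMSO minus medium blank, and the 50% point reported. The compound series (10–0.004 μM, pre-addition, in 5% DMSO) was added one day after plating KG-1, SNU-16 and RT-112 at 30,000, 5,000 and 1,000 cells/well respectively.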
(Tetrazolium dyes change colour on reduction, which living cells bring about.)

The next test has as its target Recombinant human FGFR2 (Homo sapiens, UniProt P21802). The experiment in a line: Transcreener Kinase Assay of FGFR2. To be noted: read-out: FGFR2 (FP) IC50. In kind it is biochemical.
For another test, the system named is SNU-16. The experiment in a line: Cellular Proliferation Assay (Cell Counting Kit-8), SNU-16. To be noted: Homo sapiens, SNU-16 cells, 72 hours. In kind it is cell-based. Summed up:
as §1

Another test concerns the target Recombinant human FGFR1 (Homo sapiens, UniProt P11362). The experiment in a line: Transcreener Kinase Assay of FGFR1. In kind it is biochemical. To be noted: read-out: FGFR1 (FP) IC50.
The next test has as its target FGFR3 kinase (Homo sapiens, UniProt P22607). Briefly: Z-Lyte Kinase Assay of FGFR3. The format is biochemical. An outline of the steps:
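FRET peptide-cleavage format: 1 h kinase reaction at RT (25-30[…]), then 1 h protease development, then stop and dual-emission read (Ex400, Em445/520 nm). Working solutions: kinase 0.7 μg/ml, Tyr 4 peptide 4 μM, ATP 300 uM in 1.33× buffer; eight compound concentrations from 1 μM, 2% DMSO final.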

The next test has as its system KG-1. Briefly: Cellular Proliferation Assay (Cell Counting Kit-8), KG-1. In kind it is cell-based. To be noted: Homo sapiens, KG1 cells, 72 hours. An outline of the steps:
as §1

The structures appear in SMILES notation.

Sequence of Recombinant human FGFR1 (P11362 22-822): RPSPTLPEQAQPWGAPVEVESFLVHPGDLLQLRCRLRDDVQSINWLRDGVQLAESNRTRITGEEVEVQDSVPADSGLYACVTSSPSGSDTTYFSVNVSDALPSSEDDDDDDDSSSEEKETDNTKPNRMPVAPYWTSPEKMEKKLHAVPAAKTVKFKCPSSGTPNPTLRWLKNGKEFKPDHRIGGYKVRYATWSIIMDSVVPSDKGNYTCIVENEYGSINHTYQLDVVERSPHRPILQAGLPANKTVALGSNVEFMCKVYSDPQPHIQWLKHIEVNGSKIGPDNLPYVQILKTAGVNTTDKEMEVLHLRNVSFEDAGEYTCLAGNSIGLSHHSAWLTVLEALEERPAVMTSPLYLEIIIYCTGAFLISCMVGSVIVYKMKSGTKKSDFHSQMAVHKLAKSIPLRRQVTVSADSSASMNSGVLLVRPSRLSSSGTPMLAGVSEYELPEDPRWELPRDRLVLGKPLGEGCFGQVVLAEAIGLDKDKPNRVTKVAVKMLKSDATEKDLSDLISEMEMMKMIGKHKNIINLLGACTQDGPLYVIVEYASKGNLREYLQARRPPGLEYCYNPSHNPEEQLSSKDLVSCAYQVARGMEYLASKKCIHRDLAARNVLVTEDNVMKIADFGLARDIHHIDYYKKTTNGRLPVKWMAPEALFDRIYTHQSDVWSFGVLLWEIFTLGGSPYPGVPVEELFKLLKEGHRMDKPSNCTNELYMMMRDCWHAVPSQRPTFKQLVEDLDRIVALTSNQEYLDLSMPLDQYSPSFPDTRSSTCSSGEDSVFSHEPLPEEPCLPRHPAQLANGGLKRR
Sequence of Recombinant human FGFR2 (P21802 22-821): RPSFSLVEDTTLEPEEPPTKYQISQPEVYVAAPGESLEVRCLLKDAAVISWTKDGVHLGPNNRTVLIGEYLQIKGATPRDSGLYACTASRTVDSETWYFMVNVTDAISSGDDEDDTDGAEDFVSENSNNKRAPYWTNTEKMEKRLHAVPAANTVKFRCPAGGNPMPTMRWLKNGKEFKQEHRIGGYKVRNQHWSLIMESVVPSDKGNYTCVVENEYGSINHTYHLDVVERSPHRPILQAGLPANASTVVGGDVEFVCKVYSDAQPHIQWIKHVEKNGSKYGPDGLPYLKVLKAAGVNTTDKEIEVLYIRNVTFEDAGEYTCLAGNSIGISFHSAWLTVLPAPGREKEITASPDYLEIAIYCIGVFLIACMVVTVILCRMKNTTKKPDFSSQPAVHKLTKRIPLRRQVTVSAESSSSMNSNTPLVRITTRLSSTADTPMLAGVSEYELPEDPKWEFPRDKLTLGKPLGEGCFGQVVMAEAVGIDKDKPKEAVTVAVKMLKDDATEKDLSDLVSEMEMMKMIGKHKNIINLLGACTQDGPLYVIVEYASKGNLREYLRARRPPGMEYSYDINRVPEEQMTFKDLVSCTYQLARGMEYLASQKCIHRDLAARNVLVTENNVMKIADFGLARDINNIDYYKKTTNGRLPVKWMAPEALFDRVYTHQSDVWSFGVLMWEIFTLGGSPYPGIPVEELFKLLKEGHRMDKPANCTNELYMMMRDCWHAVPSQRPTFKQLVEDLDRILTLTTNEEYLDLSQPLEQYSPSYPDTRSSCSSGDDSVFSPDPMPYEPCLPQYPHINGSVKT
Sequence of FGFR3 kinase (P22607 23-806): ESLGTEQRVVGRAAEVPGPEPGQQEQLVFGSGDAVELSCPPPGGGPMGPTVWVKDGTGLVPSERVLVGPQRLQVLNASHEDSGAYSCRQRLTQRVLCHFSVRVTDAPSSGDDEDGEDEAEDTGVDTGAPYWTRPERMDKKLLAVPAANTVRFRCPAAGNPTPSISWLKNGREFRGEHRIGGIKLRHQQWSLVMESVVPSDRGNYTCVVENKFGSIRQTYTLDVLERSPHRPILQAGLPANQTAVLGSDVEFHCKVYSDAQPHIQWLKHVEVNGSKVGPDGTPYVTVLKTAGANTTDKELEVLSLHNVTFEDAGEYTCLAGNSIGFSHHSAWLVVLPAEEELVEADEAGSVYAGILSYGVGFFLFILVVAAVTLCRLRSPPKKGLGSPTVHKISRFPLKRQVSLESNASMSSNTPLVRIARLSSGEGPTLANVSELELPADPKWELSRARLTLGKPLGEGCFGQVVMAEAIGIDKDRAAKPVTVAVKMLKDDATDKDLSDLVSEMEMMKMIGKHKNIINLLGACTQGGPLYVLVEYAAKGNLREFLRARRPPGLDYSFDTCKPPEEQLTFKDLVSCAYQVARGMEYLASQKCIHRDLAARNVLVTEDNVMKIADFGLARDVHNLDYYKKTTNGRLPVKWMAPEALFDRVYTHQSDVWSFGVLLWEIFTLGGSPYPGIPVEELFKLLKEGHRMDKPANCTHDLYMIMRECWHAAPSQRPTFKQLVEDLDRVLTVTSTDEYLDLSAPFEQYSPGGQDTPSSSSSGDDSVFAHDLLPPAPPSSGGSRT

By IC50 is commonly meant the midpoint of a concentration-inhibition curve. Turning to `CNC(=O)c1cc(CCc2cnc(Nc3cnn(C)c3)nc2)c(F)c(OC)c1` [Compound 25], the 50% inhibitory concentration (IC50) in the test on RT-112 worked out at 218 nM; at Recombinant human FGFR2, 8 nM; in the test on SNU-16 it was 23 nM; on Recombinant human FGFR1, 15 nM; at FGFR3 kinase, 30 nM; with KG-1, 39 nM.
Regarding `CNC(=O)c1cc(CCc2cnc(Nc3ccc4nnc(COC)n4c3)nc2)c(F)c(OC)c1` [Compound 72], the IC50 was 554 nM in the test on RT-112; 24 nM at Recombinant human FGFR2; 94 nM in the test with SNU-16; 58 nM at Recombinant human FGFR1; 38 nM at FGFR3 kinase; 195 nM with KG-1.
Take `CCn1cc(Nc2ncc(OCc3c(F)c(OC)cc(C(=O)NC)c3F)cn2)cn1` [Compound 203]: the concentration for half-maximal inhibition (IC50) in the test with RT-112 was determined as 37 nM; on Recombinant human FGFR2 it was 8 nM; in the test on SNU-16 it was 23 nM; at Recombinant human FGFR1, 11 nM; against FGFR3 kinase it was 14 nM; with KG-1, 11 nM.
On to `CCn1ncc(Nc2ncc(CCc3cc(C(=O)NC)cc(OC)c3F)cn2)c1C` [Compound 110], for which the IC50 is 197 nM in the test with RT-112; 14 nM on Recombinant human FGFR2; 46 nM in the test on SNU-16; 68 nM at Recombinant human FGFR1; 24 nM at FGFR3 kinase; 95 nM with KG-1.
As for `CNC(=O)c1cc(CCc2cnc(Nc3cnn(C(F)F)c3)nc2)c(Cl)c(OC)c1` [Compound 149], the IC50 in the test on RT-112 was found to be 21 nM; on Recombinant human FGFR2, 8 nM; in the test on SNU-16, 17 nM; at Recombinant human FGFR1, 15 nM; on FGFR3 kinase, 33 nM; with KG-1, 67 nM.
Consider `CCn1cc(Nc2ncc(CCc3cc(C(=O)NC)cc(OC)c3C#N)cn2)cn1` [Compound 179, 4-cyano-3-(2-(2-((1-ethyl-1H-pyrazol-4-yl)amino)pyrimidin-5-yl)ethyl)-5-methoxy-N-methylbenzamide], for which the IC50 in the test with RT-112 was determined as 952 nM; on Recombinant human FGFR2, 56 nM; in the test on SNU-16 it was 202 nM; on Recombinant human FGFR1, 69 nM; on FGFR3 kinase, 91 nM; in the test with KG-1, 284 nM.
Consider `CONC(=O)c1cc(CCc2cnc(Nc3cn[nH]c3)nc2)cc(OC)c1` [Compound 101], for which the IC50 with RT-112 stood at 257 nM; on Recombinant human FGFR2 it was 4 nM; in the test with SNU-16 it was 42 nM; on Recombinant human FGFR1, 8 nM; on FGFR3 kinase, 15 nM; in the test with KG-1, 22 nM.
Turning to `CNC(=O)c1cc(CCc2cnc(Nc3cnn(C4CCC4)c3)nc2)c(F)c(OC)c1` [Compound 10], the IC50 was determined as 29 nM in the test with RT-112; 5 nM at Recombinant human FGFR2; 22 nM in the test on SNU-16; 25 nM on Recombinant human FGFR1; 8 nM against FGFR3 kinase; 18 nM with KG-1.
As for `CNC(=O)c1cc(CCc2cnc(Nc3cnn(CCO)c3)nc2)c(Cl)c(OC)c1` [Compound 148], the half-maximal inhibitory concentration (IC50) was determined as 495 nM in the test on RT-112; 5 nM on Recombinant human FGFR2; 59 nM with SNU-16; 9 nM at Recombinant human FGFR1; 14 nM against FGFR3 kinase; 24 nM with KG-1.
`CNC(=O)c1cc(CCc2cnc(Nc3cnn(CCN4CCN(C)CC4)c3)nc2)c(Cl)c(OC)c1` [Compound 89]: the IC50 with RT-112 was 46 nM; on Recombinant human FGFR2, 8 nM; in the test with SNU-16, 29 nM; on Recombinant human FGFR1 it was 12 nM; against FGFR3 kinase, 8 nM; in the test with KG-1 it was 130 nM.
For the compound `CNC(=O)c1cc(CCc2cnc(Nc3cnn(C4CN(C)C4)c3)nc2)c(F)c(OC)c1` [Compound 166], the IC50 in the test on RT-112 came to 592 nM; at Recombinant human FGFR2, 13 nM; in the test on SNU-16 it was 57 nM; at Recombinant human FGFR1, 20 nM; against FGFR3 kinase, 15 nM; in the test on KG-1, 69 nM.
As for `CNC(=O)c1cc(CCc2cnc(Nc3ccc4c(C)n(C)nc4c3)nc2)c(F)c(OC)c1` [Compound 130], the half-maximal inhibitory concentration (IC50) is 48 nM in the test with RT-112; 5 nM at Recombinant human FGFR2; 32 nM in the test on SNU-16; 8 nM on Recombinant human FGFR1; 10 nM at FGFR3 kinase; 28 nM in the test on KG-1.
For `CCNC(=O)c1cc(CCc2cnc(Nc3cnn(C)c3)nc2)c(Cl)c(OC)c1` [Compound 147], the half-maximal inhibitory concentration (IC50) with RT-112 amounted to 334 nM; at Recombinant human FGFR2 it was 10 nM; with SNU-16, 46 nM; on Recombinant human FGFR1, 19 nM; on FGFR3 kinase, 22 nM; in the test with KG-1 it was 48 nM.
Consider `CCn1cc(Nc2ncc(OCc3cc(C(=O)NC)cc(OC)c3F)cn2)cn1` [Compound 181, 3-(((2-((1-ethyl-1H-pyrazol-4-yl)amino)pyrimidin-5-yl)oxy)methyl)-4-fluoro-5-methoxy-N-methylbenzamide], for which the IC50 with RT-112 turned out to be 35 nM; at Recombinant human FGFR2, 5 nM; in the test on SNU-16, 8 nM; on Recombinant human FGFR1 it was 19 nM; on FGFR3 kinase it was 9 nM; in the test with KG-1 it was 26 nM.
Consider `CNC(=O)c1cc(CCc2cnc(Nc3cnn([C@H]4CCCN(C)C4)c3)nc2)c(F)c(OC)c1` [Compound 172], for which the IC50 in the test with RT-112 was 64 nM; on Recombinant human FGFR2 it was 6 nM; in the test with SNU-16 it was 14 nM; at Recombinant human FGFR1 it was 9 nM; on FGFR3 kinase, 6 nM; in the test on KG-1 it was 22 nM.
In the case of `CCn1cc(Nc2ncc(CCc3cc(OC)cc(C(=O)NC)c3F)cn2)cn1` [Compound 27], the IC50 turned out to be 402 nM in the test on RT-112; 42 nM on Recombinant human FGFR2; 293 nM with SNU-16; 256 nM at Recombinant human FGFR1; 21 nM against FGFR3 kinase; 340 nM in the test with KG-1.
Consider `CNC(=O)c1cc(COc2cnc(Nc3ccc(N4C[C@@H](C)N[C@@H](C)C4)c(F)c3)nc2)c(F)c(OC)c1` [Compound 195], for which the IC50 with RT-112 was found to be 25 nM; on Recombinant human FGFR2, 6 nM; with SNU-16, 16 nM; at Recombinant human FGFR1, 12 nM; on FGFR3 kinase, 12 nM; in the test on KG-1, 25 nM.
Take `CCn1cc(Nc2ncc(CCc3cc(C(=O)NC)cc(OC)c3F)cn2)c(C)n1` [Compound 111]: the IC50 in the test on RT-112 is 570 nM; at Recombinant human FGFR2, 33 nM; with SNU-16, 127 nM; on Recombinant human FGFR1, 107 nM; at FGFR3 kinase, 61 nM; in the test with KG-1, 162 nM.
With `CNC(=O)c1cc(CCc2cnc(Nc3cnn(C)c3)nc2)c(Cl)c(OC)c1` [Compound 146], the half-inhibitory concentration (IC50) in the test on RT-112 is 142 nM; on Recombinant human FGFR2, 10 nM; in the test with SNU-16, 19 nM; on Recombinant human FGFR1, 12 nM; against FGFR3 kinase it was 14 nM; in the test on KG-1, 9 nM.
